Measurements published in paper PMC10666548, “Identification of the bacterial metabolite aerugine as potential trigger of human dopaminergic neurodegeneration” (Environment international, 2023).

How the values were obtained:
[1] = Cytotoxicity to immature (d2) LUHMES cells, calcein-AM & H-33342 imaging; assay type: cell-based; conditions: human, immature LUHMES d2, 24 h exposure, read-out: EC50 (half-maximal cytotoxic potency), cell viability
Method: The assays were performed as described previously ([Hoelting et al., 2016]; [Klima et al., 2021]; [Krug et al., 2013]). In brief, 30′000 cells per well were seeded on d2 (LUHMES) / d0 (peripheral neurons, Cortex.4U, CNS.4U) in their respective differentiation media into standard pre-coated 96-well plates. They were incubated for 1 h at 37 °C and 5% CO2 before treatment. 24 h after treatment the Calcein/Hoechst readout was performed.
Neurite area (NA) and viability (V) were assessed as described previously ([Stiegler et al., 2011]). In brief, cells were stained with 1 μM calcein-AM and 1 μg/ml H-33342 for 30 min at 37 °C and 5% CO2. Image acquisition was performed using an Array-Scan VTI HCS Reader (Cellomics, PA, USA) equipped with a Hamamatsu ORCA-ER camera. 10 fields per well were imaged with 2 channels at 20x magnification (2×2 pixel binning). […]
Nuclei were identified in channel 1 depending on intensity, area, size and shape. […] The NA was automatically calculated by excluding the VCSAs from the VCSs. […]
Fig. 3. […] The cell viability was assessed 24 h later by calcein-AM & H-33342 staining and high content imaging. […] The overall cell viability was assessed by measuring resazurin reduction in technical triplicates. […] The cell viability was assessed 24 h later by calcein-AM & H-33342 staining and high content imaging. […]

[2] = system: GABA neurons of C. elegans Punc-25; experiment: C. elegans GABA neuron degeneration scoring (GFP-labelled neurons); assay type: in vivo, Caenorhabditis elegans; conditions: 48 h exposure
Method: The strain BY200 Pdat-1::gfp (vtIs1), dat-1::GFP(vtls1) was kindly provided by the Blakely laboratory, Vanderbilt University Medical Center and the strain Punc-25:GFP was obtained from the Caenorhabditis Genetics Center (CGC, University of Minnesota, Minneapolis, MN, USA). The worms were maintained in nematode growth medium (NGM) plates that contain: 3 g/l NaCl, 17 g/l agar, 2.5 g/l peptone, 1 mM CaCl2, 5 mg/l cholesterol, 1 mM MgSO4, 25 mM potassium phosphate buffer (pH 6.0) with 1.25 ml nystatin and 50 mg/l streptomycin sulfate) and Escherichia coli (E. coli) OP50 strain was used as food ([Brenner, 1974]). […]
On day 2 and day 8, approximately, 20–30 worms per treatment were picked onto slides prepped with a 3% agarose pad, anesthetized with 5 μl of 3 mM levamisole hydrochloride ([Sulston et al., 1975]) and observed under an Olympus BX41 fluorescence microscope to determine morphology status according to novel Likert-like scale of degeneration as previously described ([Benedetto et al., 2010]).
Fig. 5. […] They were exposed to different aerugine concentrations and counted every 24 h. […] Differences on a given day were analyzed by ANOVA and found to be non-significant. […] The GFP-labelled neurons of 20–30 worms per condition were analyzed and scored for specific neurodegeneration. […] These scores were assessed to quantify the dopaminergic neurodegeneration caused be aerugine in vivo. […]

Q: What does the source list for OCC1CSC(c2ccccc2O)=N1 (centres unmarked) [aerugine, 2-[4-(hydroxymethyl)-4,5-dihydro-1,3-thiazol-2-yl]phenol]?
A: EC50 at 24 h [1]: 9.3 ± 1.1 µM; degeneration of GABA neurons [2]: not affected
